Results on 2 compounds are retold here after US11827897B2, “Agricultural compositions and related methods” (Flagship Pioneering Innovations VI, LLC, priority 2018, dated 2023).

Series [1] relates to BMS cell growth. As to the kind of experiment: Cytotoxicity assay for concentrations not affecting apparent BMS cell growth. In kind it is cell-based, Zea mays. The method, then: (§1) To determine the effect of the flagellin peptide flg22 ([…] (SEQ ID NO: 14) (AnaSpec AS-62633) on PMP production by Zea mays BMS cells, 200 mL of BMS cell culture were prepared as described above. A cytotoxicity assay was carried out to determine the range of concentrations of flg22 that would not affect apparent BMS cell growth, and the flg22 concentration of 1 μM was determined to be compatible with cell growth. 30 mL of BMS cell suspension was distributed in individual 125 mL conical culture vented-flasks. In parallel, 89.55 mL of fresh media was mixed with 450 μL of 400 μM flg22 peptide suspension prepared in ultrapure sterile water to a final concentration of 2 μM. For the control conditions, 450 μL of ultrapure sterile water was added instead of flg22. Then, 30 mL of the media/flg22 or media/water mix was added to each flask containing 30 mL cell suspension (1:1 v/v) to a flg22 final concentration of 1 μM. Biological triplicates were performed for both flg22 treatment and control conditions. Control cells and cells treated with flg22 were grown at 24° C. with agitation (110 rpm) for 96 hours.
To determine the effect of salicylic acid (SA) on PMP production by Zea mays BMS cells, 200 mL of BMS cell culture were prepared as described above. […] 30 mL of BMS cell suspension was distributed into individual 125 mL conical culture vented-flasks. […]

Series [2] has as its system tomato plants grown in hydroponic culture. Description: PMP production by tomato plants grown in hydroponic culture after salicylic acid treatment. In kind it is in vivo, Solanum lycopersicum. The method, then:
Seeds of tomato (Solanum lycopersicum) cultivar Moneymaker were sterilized as follows: 70% ethanol for 3 min, 50% household bleach with 0.1% Triton X-100 (Sigma) for 20 min, washed three times with sterile deionized water. Sterilized seeds were germinated on moistened filter paper (Whatman®) in sterile Petri dishes sealed with medical tape (3M) and placed in a plant growth incubator (16 hr light, 23 C/21 C day/night) for seven days. Clear, square, pre-sterilized plastic containers (PhytoTech Labs) were assembled into hydroponic containers similar to what was previously described (Alatorre-Cobos et al., BMC Plant Biol., 14: Article No.: 69, 2014; FIG. 8A). Two containers were cut with sterile scalpels to assemble a support for a sterile polytetrafluoroethylene (PTFE) plastic mesh (McMaster-Carr). Plastic mesh was fixed to plastic supports with sterile staples. Small openings were cut into the plastic mesh and germinated seedlings threaded through the openings using sterile forceps. Each mesh supported five seedlings. 200 mL 1×MS growth medium (Murashige & Skoog basal salt mixture (Sigma) 4.3 g/L, sucrose 10 g/L, MES (Sigma) 0.5 g/L, pH 5.8 adjusted with KOH) was added to a whole plastic container serving as the base. Plastic support with mesh and threaded seedlings was placed into the base container. A second whole plastic container with a cut 2 cm^2 opening and sealed with medical tape was used as the lid. The two halves were sealed with medical tape and the containers transferred to a plant incubator (16 hr light, 23° C./21° C. day/night) for three weeks. […]
Culture medium (180 mL per container) was collected and centrifuged at 4,000×g for 30 min to pellet debris. […] Pellets were resuspended in 200 μL 1×PBS, pH 7.4 and analyzed using nano flow-cytometry (NanoFCM). PMP concentration (treatment: 4.06×10^11±1.41×10^11 PMP/mL (SEM); control: 5.44×10^10±2.49×10^10 PMP/mL (SEM)) and PMP size (treatment: 97±25 nm (SD); control: 82±27 nm (SD)) were determined by NanoFCM using concentration and size standards provided by the manufacturer (FIG. 8B).

The test system of series [3] is Zea mays BMS cells. As to the kind of experiment: PMP production by Zea mays BMS cell culture after elicitation (NanoFCM). It is filed as cell-based. Conditions: 100 μM salicylic acid, 96 hours. The method, then:
Zea mays, Black Mexican Sweet (BMS) cells were purchased from the ABRC. BMS cells were grown in Murashige and Skoog basal medium pH 5.8, containing 4.3 g/L Murashige and Skoog Basal Salt Mixture (Sigma M5524), 2% sucrose (S0389, Millipore Sigma), 2 mg/L 2,4-dichlorophenoxyacetic acid (D7299, Millipore Sigma), 250 ug/L thiamine HCL (V-014, Millipore Sigma) and a 1× MS vitamin mix solution in ddH2O. The 1× vitamin mix solution contained niacin (N0761-100G, Millipore Sigma), pyroxidine hydrochloride (P6280-25G, Millipore Sigma), D-pantothenic acid hemicalcium salt (P5155-100G, Millipore Sigma), L-Asparagine (A4159-25G, Millipore Sigma), and myo-inositol (17508-100G, Millipore Sigma) at respective final concentrations of 1.3 mg/L, 250 μg/L, 250 μg/L, 130 mg/L, and 200 mg/L. Cells were grown in 1 L vented conical sterile flasks in dark conditions at 24° C. with agitation (110 rpm). For experiments, BMS cells were grown until cells were at a packed cell volume (PCV) of 20%. The PCV estimates cell density and is defined as the volume of cells divided by the total volume of the cell culture aliquot. The Packed Cell Volume is expressed as a percentage. The PCV was determined as follows: 5 mL of BMS cell suspension was centrifuged for 5 min at 3900 rpm, and the volume of the cell pellet was determined.
as §1, with “Then, 30 mL of the media/flg22 or media/water mix was added to each flask containing 30 mL cell suspension (1:1 v/v) to a flg22 final concentration of 1 μM. Biological triplicates were performed for both flg22 treatment and control conditions. Control cells and cells treated with flg22 were grown at 24° C. with agitation (110 rpm) for 96 hours.” left out

Where a SMILES comes first, the peptide text is derived from it.

Take `CC[C@H](C)[C@H](NC(=O)[C@H](CCC(N)=O)NC(=O)[C@H](CC(C)C)NC(=O)CNC(=O)[C@H](C)NC(=O)[C@H](C)NC(=O)[C@H](CC(=O)O)NC(=O)[C@H](CC(=O)O)NC(=O)[C@H](CCCCN)NC(=O)[C@H](C)NC(=O)[C@H](CO)NC(=O)[C@H](CC(N)=O)NC(=O)[C@@H](NC(=O)[C@H](CCCNC(=N)N)NC(=O)[C@H](CO)NC(=O)CNC(=O)[C@@H](NC(=O)[C@H](CO)NC(=O)[C@H](CC(C)C)NC(=O)[C@H](CCCNC(=N)N)NC(=O)[C@@H](N)CCC(N)=O)[C@@H](C)O)[C@@H](C)CC)C(=O)N[C@@H](C)C(=O)O` [flg22] (H-QRLSTGSRINSAKDDAAGLQIA-OH): the “concentration compatible with cell growth” value in series [1] (Zea mays BMS cells) was found to be 1 µM.

As to `O=C(O)c1ccccc1O` [salicylic acid], the PMP size in series [2] (1 mM salicylic acid for three days, ± SD, control 82±27 nm) is recorded as 97±25 nm. For the same compound, in series [2] (hydroponically grown tomato, 1 mM salicylic acid), the “effect on secretion of PMPs from the plant roots” value is listed as “enhance secretion of PMPs from the plant roots”. Besides, the PMP concentration is 4.06×10^11±1.41×10^11 PMP/mL in series [2] (three-week-old tomato plants, 1 mM salicylic acid for three days, ± SEM, n=2, DMSO control 5.44×10^10±2.49×10^10) and 1.84×10^11 PMP/mL in series [3] (BMS cells, average of triplicates, DMSO control 1.47×10^11 PMP/mL). Besides, the “effect on production of PMPs by BMS cells in culture” value in series [3] was “stimulates the production of PMPs”. The “mean PMP size” value in series [3] (BMS cells, control 87±15 nm) worked out at 86.5±15 nm. Also, in series [1] (Zea mays), the “concentration compatible with cell growth” value worked out at 100 µM.
